Source: ChEMBL document CHEMBL1201862, “PubChem BioAssay data set” (2004)
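Grown in 96-well plates, cells were treated for 48 hours with each compound at five concentrations. Insufficient inhibition: endpoint recorded as highest concentration tested. GI50 is the concentration that inhibits growth by half.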 Calls of active or inactive are those of the source. Cut-off read from the data, not from the text of the source: active = GI50 up to about 1.1 µM and inactive = higher.

How the values were obtained:
Assay in all cases: NCI-60 cell line screen, 48 h
[1] = system: LOX IMVI
[2] = system: SK-MEL-2
[3] = system: NCI-H226
[4] = system: OVCAR-5
[5] = system: SK-MEL-5
[6] = system: HCT-116
[7] = system: ACHN
[8] = system: SNB-19
[9] = system: SK-OV-3
[10] = system: MDA-N
[11] = system: Hs-578T
[12] = system: SK-MEL-28
[13] = system: M14
[14] = system: OVCAR-4
[15] = system: HT-29
[16] = system: HOP-62
[17] = system: SF-539
[18] = system: HCT-15
[19] = system: RXF 393
[20] = system: OVCAR-3

SMILES	GI50 [1]	GI50 [2]	GI50 [3]	GI50 [4]	GI50 [5]	GI50 [6]	GI50 [7]	GI50 [8]	GI50 [9]	GI50 [10]	GI50 [11]	GI50 [12]	GI50 [13]	GI50 [14]	GI50 [15]	GI50 [16]	GI50 [17]	GI50 [18]	GI50 [19]	GI50 [20]
COc1nc2ncc([C@@H](OC(C)=O)[C@@H](COC(C)=O)OC(C)=O)nc2c(=O)[nH]1	> 100 µM (inactive)	> 100 µM (inactive)	51.5 µM (inactive)	> 100 µM (inactive)	> 100 µM (inactive)	> 100 µM (inactive)	> 100 µM (inactive)	> 100 µM (inactive)	> 100 µM (inactive)	> 100 µM (inactive)	> 100 µM (inactive)	> 100 µM (inactive)	> 100 µM (inactive)	> 100 µM (inactive)	> 100 µM (inactive)	> 100 µM (inactive)	> 100 µM (inactive)	> 100 µM	> 100 µM (inactive)	> 100 µM (inactive)
Cc1nn(-c2ccccc2)c(C)c1/C=N/N=C1\SCC(=O)N1c1ccccc1	22.6 µM (inactive)	25.7 µM (inactive)	23.6 µM (inactive)	27.7 µM (inactive)	15 µM (inactive)	19.1 µM (inactive)	17.3 µM (inactive)	43.1 µM (inactive)	29.8 µM (inactive)	20.9 µM (inactive)	37.2 µM (inactive)	22.3 µM (inactive)	28.6 µM (inactive)	10.6 µM (inactive)	20.5 µM (inactive)	37.9 µM (inactive)	22.9 µM (inactive)	17.9 µM	16.5 µM (inactive)	24.9 µM (inactive)
C/C(=N\N=C1/C(=O)OC(c2ccccc2)=C1C(=O)c1ccccc1)c1ccc([N+](=O)[O-])cc1	34.8 µM (inactive)	> 100 µM (inactive)	27.8 µM (inactive)	72.3 µM (inactive)	37 µM (inactive)	91.4 µM (inactive)	42.6 µM (inactive)	> 100 µM (inactive)	85.3 µM (inactive)	87.9 µM (inactive)	54.3 µM (inactive)	54.7 µM (inactive)	65.5 µM (inactive)	37.4 µM (inactive)	73.8 µM (inactive)	> 100 µM (inactive)	65.2 µM (inactive)	23.7 µM	46 µM (inactive)	33.7 µM (inactive)
CON(C)C(=O)CNC(=O)OCC1c2ccccc2-c2ccccc21	18.8 µM (inactive)	> 100 µM (inactive)	> 100 µM (inactive)	> 100 µM (inactive)	84.5 µM (inactive)	18.6 µM (inactive)	> 100 µM (inactive)	> 100 µM (inactive)	> 100 µM (inactive)	> 100 µM (inactive)	> 100 µM (inactive)	> 100 µM (inactive)	> 100 µM (inactive)	> 100 µM (inactive)	> 100 µM (inactive)	> 100 µM (inactive)	> 100 µM (inactive)	78 µM	> 100 µM (inactive)	> 100 µM (inactive)
CC1=CCC[C@@H]2[C@@](C)(Cc3cc(O)ccc3O)[C@H](C)CC[C@@]12C	4.99 µM (inactive)	14.5 µM (inactive)	16.2 µM (inactive)	13.4 µM (inactive)	5.43 µM (inactive)	5.13 µM (inactive)	6.25 µM (inactive)	7.57 µM (inactive)	12.6 µM (inactive)	5.53 µM (inactive)	5.92 µM (inactive)	8.81 µM (inactive)	4.94 µM (inactive)	12.1 µM (inactive)	17.7 µM (inactive)	9.62 µM (inactive)	6.18 µM (inactive)	5 µM	6.44 µM (inactive)	4.69 µM (inactive)
CCN(CC)c1ccc(/C=C/C=C2C(=O)NC(=S)NC2=O)cc1	13.5 µM (inactive)	> 68.9 µM (inactive)	28.6 µM (inactive)	> 100 µM (inactive)	37.5 µM (inactive)	30.9 µM (inactive)	> 100 µM (inactive)	43.7 µM (inactive)	> 100 µM (inactive)	12.4 µM (inactive)	11 µM (inactive)	4.91 µM (inactive)	35.4 µM (inactive)	> 100 µM (inactive)	> 100 µM (inactive)	15.4 µM (inactive)	13.9 µM (inactive)	> 38.7 µM	8.07 µM (inactive)	16.6 µM (inactive)
COc1ccc2[nH]c(C(=O)N3CC(CCl)c4ccc(N)cc43)cc2c1 (stereo not given)	0.177 µM (active)	0.199 µM (active)	0.32 µM (active)	0.316 µM (active)	0.0451 µM (active)	0.164 µM (active)	0.0728 µM (active)	0.586 µM (active)	0.349 µM (active)	0.144 µM (active)	0.335 µM (active)	0.368 µM (active)	0.146 µM (active)	0.163 µM (active)	0.151 µM (active)	0.327 µM (active)	0.211 µM (active)	0.287 µM	0.09 µM (active)	0.27 µM (active)
C=CCC1(O)c2ccccc2C(=O)c2c(O)ccc(O)c21 (stereo not given)	9.66 µM (inactive)	2.68 µM (inactive)	7.03 µM (inactive)	17.2 µM (inactive)	8.2 µM (inactive)	5.42 µM (inactive)	13.7 µM (inactive)	6.5 µM (inactive)	10.4 µM (inactive)	2.12 µM (inactive)	4.24 µM (inactive)	8.28 µM (inactive)	5.01 µM (inactive)	11.1 µM (inactive)	7.28 µM (inactive)	12.4 µM (inactive)	7.93 µM (inactive)	3.61 µM	4.12 µM (inactive)	5.65 µM (inactive)
CN(C)c1ccc(/N=C2/NC(=N\c3ccccc3)/C(=N/c3ccccc3)S2)cc1	37.6 µM (inactive)	98.2 µM (inactive)	> 100 µM (inactive)	> 100 µM (inactive)	> 100 µM (inactive)	85.3 µM (inactive)	49.1 µM (inactive)	87.3 µM (inactive)	48.9 µM (inactive)	> 100 µM (inactive)	30.7 µM (inactive)	> 100 µM (inactive)	> 100 µM (inactive)	> 100 µM (inactive)	> 100 µM (inactive)	41.6 µM (inactive)	> 100 µM (inactive)	> 100 µM	43.1 µM (inactive)	> 100 µM (inactive)
Nc1nc2cc(CNc3ccc(C(=O)O)cc3)ccc2nc1-c1ccccc1	54.2 µM (inactive)	> 100 µM (inactive)	> 100 µM (inactive)	> 100 µM (inactive)	> 100 µM (inactive)	69.8 µM (inactive)	> 100 µM (inactive)	> 100 µM (inactive)	> 100 µM (inactive)	> 100 µM (inactive)	> 100 µM (inactive)	> 100 µM (inactive)	> 100 µM (inactive)	> 100 µM (inactive)	> 100 µM (inactive)	> 100 µM (inactive)	74.5 µM (inactive)	> 100 µM	> 100 µM (inactive)	> 100 µM (inactive)
Cc1c(NC(=O)CSC(=S)N(C)C)c(=O)n(-c2ccccc2)n1C	> 100 µM (inactive)	> 100 µM (inactive)	> 100 µM (inactive)	> 100 µM (inactive)	> 100 µM (inactive)	> 100 µM (inactive)	> 100 µM (inactive)	> 100 µM (inactive)	> 100 µM (inactive)	> 100 µM (inactive)	> 100 µM (inactive)	> 100 µM (inactive)	> 100 µM (inactive)	> 100 µM (inactive)	> 100 µM (inactive)	> 100 µM (inactive)	> 100 µM (inactive)	> 100 µM	> 100 µM (inactive)	> 100 µM (inactive)
CO[C@@H]1[C@@H](OC2OC(C)C(OC3CC(C)(O)C(OC(=O)CC(C)C)C(C)O3)C(N(C)C)C2O)[C@@H](CC=O)C[C@@H](C)C(=O)/C=C/C2O[C@H]2C[C@@H](C)OC(=O)C[C@H]1OC(C)=O (stereo not given in full)	15.8 µM (inactive)	18.8 µM (inactive)	13 µM (inactive)	17.1 µM (inactive)	15.3 µM (inactive)	14.9 µM (inactive)	18.7 µM (inactive)	22 µM (inactive)	39.2 µM (inactive)	15.2 µM (inactive)	37.4 µM (inactive)	18.5 µM (inactive)	16.1 µM (inactive)	15.2 µM (inactive)	12.3 µM (inactive)	19 µM (inactive)	19.6 µM (inactive)	18.6 µM	20.7 µM (inactive)	14.3 µM (inactive)
C=C1C(=O)C23CC1C[C@H](OC(C)=O)[C@H]2C1(C)C(OC(C)=O)C[C@H](O)C(C)(C)[C@H]1C(=O)[C@@H]3OC(C)=O (stereo not given in full)	3.4 µM (inactive)	12.3 µM (inactive)	23.2 µM (inactive)	9.51 µM (inactive)	13.9 µM (inactive)	2.22 µM (inactive)	4.98 µM (inactive)	18.5 µM (inactive)	18.1 µM (inactive)	1.69 µM (inactive)	3.98 µM (inactive)	4.59 µM (inactive)	2.94 µM (inactive)	4.09 µM (inactive)	4.49 µM (inactive)	25.2 µM (inactive)	2.69 µM (inactive)	4.37 µM	3.09 µM (inactive)	5.71 µM (inactive)
CCCCCCCCC[n+]1cccc(C2C(C(=O)OCC)=C(C)NC(C)=C2C(=O)OCC)c1	2.92 µM (inactive)	1.65 µM (inactive)	11.9 µM (inactive)	10.7 µM (inactive)	1.88 µM (inactive)	4 µM (inactive)	14.6 µM (inactive)	3.45 µM (inactive)	11.3 µM (inactive)	2.13 µM (inactive)	3.1 µM (inactive)	2.44 µM (inactive)	2.7 µM (inactive)	6.9 µM (inactive)	3.96 µM (inactive)	13 µM (inactive)	4.15 µM (inactive)	16 µM	2.03 µM (inactive)	3.86 µM (inactive)
